The results in this text go back to patent US10660967B2, “Curcumin conjugates and methods of use thereof” (priority 2016, dated 2020).

Assay [1] deals with carrageenan induced paw edema. The assay is described as follows: Anti-inflammatory activity: acute carrageenan induced paw edema in rats. Format: in vivo, Wister rats. The conditions noted are these: 10 mg kg^−1 indomethacin mol equivalent; for % inhibition of edema / Mean edema thickness: intraperitoneally; for Mean edema thickness: mean ± SE; for Potency (% inhibition of edema relative to that of indomethacin reference standard): at 4 h effect. The gist of the method: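 Wistar rats (120–150 g, n=6/group) received subplantar 1% carrageenan in the right hind paw, and DMSO-vehicle animals served as controls. Results are given as % inhibition of edema thickness versus control.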

In assay [2] the test system is Salmonella typhi ATCC19430. As to the kind of experiment: Antimicrobial MIC, agar dilution. The assay is classed as cell-based. The conditions noted are these: Salmonella enterica, read-out: Minimum inhibitory concentration (MIC).
Assay [3] has as its system Staphylococcus aureus ATCC25923. The assay is described as follows: Antimicrobial MIC, agar dilution. Conditions: ATCC25923, 18 h, read-out: Minimum inhibitory concentration (MIC).
Assay [4] concerns Streptococcus pyogenes ATCC19615. As to the kind of experiment: Antimicrobial MIC, agar dilution.
Assay [5] deals with Pseudomonas aeruginosa ATCC27853. As to the kind of experiment: Antimicrobial MIC, agar dilution.
[6] abbreviates: ATCC19615, 18 h, read-out: Minimum inhibitory concentration (MIC).
The mark [7] stands for this setting: ATCC19615, read-out: Minimum inhibitory concentration (MIC).
Where [8] appears, read: ATCC27853, 18 h, read-out: Minimum inhibitory concentration (MIC).
[9] abbreviates: ATCC27853, read-out: Minimum inhibitory concentration (MIC).

Converted amounts (≈) assume the structure as drawn. Where two headings read alike, the source gives them in different places.

On to `COc1cc(/C=C/C(=O)CC(=O)/C=C/c2ccc(OC(=O)[C@@H](CCSC)NC(=O)OCc3ccccc3)c(OC)c2)ccc1OC(=O)[C@@H](CCSC)NC(=O)OCc1ccccc1` [Compound 20], for which the “% inhibition of edema” value in assay [1] (1 h) stood at 79%; in assay [1] (2 h) it was 80%; in assay [1] (3 h) it was 85%; in assay [1] (4 h), 94%; in assay [1] (24 h), 90%. The Mean edema thickness amounted to 0.51 ± 0.04 mm in assay [1] (1 h); 0.41 ± 0.03 mm in assay [1] (2 h); 0.27 ± 0.01 mm in assay [1] (3 h); 0.08 ± 0.02 mm in assay [1] (4 h); 0.08 ± 0.01 mm in assay [1] (24 h). Also, the “Potency (% inhibition of edema relative to that of indomethacin reference standard)” value in assay [1] was found to be 108.

Regarding `COc1cc(/C=C/C(=O)CC(=O)/C=C/c2ccc(OC(=O)[C@@H](CCSC)NC(=O)OC(C)(C)C)c(OC)c2)ccc1OC(=O)[C@@H](CCSC)NC(=O)OC(C)(C)C` [Compound 29], the “% inhibition of edema” value in assay [1] (1 h) is recorded as 58%; in assay [1] (2 h) it was 69%; in assay [1] (3 h), 74%; in assay [1] (4 h), 89%; in assay [1] (24 h), 41%. Besides, the Mean edema thickness in assay [1] (1 h) was 1.01 ± 0.14 mm; in assay [1] (2 h) it was 0.63 ± 0.11 mm; in assay [1] (3 h), 0.47 ± 0.08 mm; in assay [1] (4 h), 0.15 ± 0.06 mm; in assay [1] (24 h), 0.49 ± 0.09 mm. In addition, in assay [1], the “Potency (% inhibition of edema relative to that of indomethacin reference standard)” value came out at 102.

As for `COc1cc(/C=C/C(=O)CC(=O)/C=C/c2ccc(OC(=O)[C@H](CCSC)NC(=O)OC(C)(C)C)c(OC)c2)ccc1OC(=O)[C@H](CCSC)NC(=O)OC(C)(C)C` [Compound 28], the “% inhibition of edema” value in assay [1] (1 h) is reported as 34%; in assay [1] (2 h) it was 36%; in assay [1] (3 h) it was 44%; in assay [1] (4 h), 88%; in assay [1] (24 h), 23%. The Mean edema thickness in assay [1] (1 h) is on record as 1.59 ± 0.21 mm; in assay [1] (2 h), 1.31 ± 0.18 mm; in assay [1] (3 h), 1.01 ± 0.17 mm; in assay [1] (4 h), 0.17 ± 0.02 mm; in assay [1] (24 h) it was 0.64 ± 0.05 mm. Moreover, the “Potency (% inhibition of edema relative to that of indomethacin reference standard)” value in assay [1] turned out to be 101.

For `COc1cc(/C=C/C(=O)CC(=O)/C=C/c2ccc(OC(=O)CNC(=O)OCc3ccccc3)c(OC)c2)ccc1OC(=O)CNC(=O)OCc1ccccc1` [Compound 5], the “% inhibition of edema” value in assay [1] (1 h) is given as 64%; in assay [1] (2 h), 32%; in assay [1] (3 h) it was 37%; in assay [1] (4 h), 34%; in assay [1] (24 h), 0%. The Mean edema thickness is on record as 0.87 ± 0.16 mm in assay [1] (1 h); 1.41 ± 0.19 mm in assay [1] (2 h); 1.13 ± 0.22 mm in assay [1] (3 h); 0.92 ± 0.20 mm in assay [1] (4 h); 0.83 ± 0.19 mm in assay [1] (24 h). In addition, in assay [1], the “Potency (% inhibition of edema relative to that of indomethacin reference standard)” value was 39.

Turning to `CCn1cc(C(=O)O)c(=O)c2cc(F)c(N3CCNCC3)cc21` [Norfloxacin, reference compound], the MIC in assay [2] (18 h) amounted to 2.4 µg/mL; in assay [2] it was 7.52 µM; in assay [3], 1250 µg/mL (≈ 3.91 mM); in assay [4] (setting [6]), 625 µg/mL; in assay [4] (setting [7]) it was 1960 µM; in assay [5] (setting [8]), 4.8 µg/mL. Moreover, the MIC in assay [5] (setting [9]) is 15 µM.

Turning to `COc1cc(/C=C/C(=O)CC(=O)/C=C/c2ccc(OC(=O)C(C)NC(=O)OCc3ccccc3)c(OC)c2)ccc1OC(=O)C(C)NC(=O)OCc1ccccc1` (stereo not shown) [Compound 7], the “% inhibition of edema” value in assay [1] (1 h) is listed as 72%; in assay [1] (2 h) it was 87%; in assay [1] (3 h) it was 97%; in assay [1] (4 h), 100%; in assay [1] (24 h) it was 100%. Besides, the Mean edema thickness in assay [1] (1 h) came to 0.67 ± 0.09 mm; in assay [1] (2 h), 0.26 ± 0.07 mm; in assay [1] (3 h) it was 0.05 ± 0.02 mm; in assay [1] (4 h), 0.00 ± 0.00 mm; in assay [1] (24 h), 0.00 ± 0.00 mm. In addition, the “Potency (% inhibition of edema relative to that of indomethacin reference standard)” value in assay [1] came to 115.

Take `COc1cc(/C=C/C(=O)CC(=O)/C=C/c2ccc(OC(=O)[C@@H](C)NC(=O)OCc3ccccc3)c(OC)c2)ccc1OC(=O)[C@@H](C)NC(=O)OCc1ccccc1` [Compound 19]: the “% inhibition of edema” value came out at 82% in assay [1] (1 h); 89% in assay [1] (2 h); 95% in assay [1] (3 h); 100% in assay [1] (4 h); 49% in assay [1] (24 h). In addition, the Mean edema thickness in assay [1] (1 h) amounted to 0.43 ± 0.08 mm; in assay [1] (2 h), 0.23 ± 0.04 mm; in assay [1] (3 h), 0.09 ± 0.03 mm; in assay [1] (4 h), 0.00 ± 0.00 mm; in assay [1] (24 h) it was 0.42 ± 0.06 mm. Also, the “Potency (% inhibition of edema relative to that of indomethacin reference standard)” value in assay [1] came out at 115.

`COc1cc(/C=C/C(=O)CC(=O)/C=C/c2ccc(OC(=O)[C@@H](NC(=O)OCc3ccccc3)C(C)C)c(OC)c2)ccc1OC(=O)[C@@H](NC(=O)OCc1ccccc1)C(C)C` [Compound 8]: the “% inhibition of edema” value in assay [1] (1 h) was determined as 51%; in assay [1] (2 h), 20%; in assay [1] (3 h) it was 19%; in assay [1] (4 h), 12%; in assay [1] (24 h), 2%. For the same compound, the Mean edema thickness in assay [1] (1 h) was found to be 1.17 ± 0.26 mm; in assay [1] (2 h), 1.65 ± 0.23 mm; in assay [1] (3 h) it was 1.45 ± 0.20 mm; in assay [1] (4 h) it was 1.23 ± 0.19 mm; in assay [1] (24 h), 0.81 ± 0.11 mm. Further, the “Potency (% inhibition of edema relative to that of indomethacin reference standard)” value in assay [1] came out at 14.

As for `COc1cc(/C=C/C(=O)CC(=O)/C=C/c2ccc(OC(=O)[C@H](CCSC)NC(=O)OCc3ccccc3)c(OC)c2)ccc1OC(=O)[C@H](CCSC)NC(=O)OCc1ccccc1` [Compound 10], the “% inhibition of edema” value worked out at 76% in assay [1] (1 h); 80% in assay [1] (2 h); 86% in assay [1] (3 h); 88% in assay [1] (4 h); 94% in assay [1] (24 h). For the same compound, the Mean edema thickness in assay [1] (1 h) stood at 0.58 ± 0.15 mm; in assay [1] (2 h), 0.41 ± 0.11 mm; in assay [1] (3 h), 0.25 ± 0.08 mm; in assay [1] (4 h), 0.17 ± 0.02 mm; in assay [1] (24 h) it was 0.05 ± 0.01 mm. Also, the “Potency (% inhibition of edema relative to that of indomethacin reference standard)” value in assay [1] is given as 101.

Take `COc1cc(/C=C/C(=O)CC(=O)/C=C/c2ccc(OC(=O)[C@H](CCC(N)=O)NC(=O)OCc3ccccc3)c(OC)c2)ccc1OC(=O)[C@H](CCC(N)=O)NC(=O)OCc1ccccc1` [Compound 21]: the “% inhibition of edema” value in assay [1] (1 h) is recorded as 51%; in assay [1] (2 h), 47%; in assay [1] (3 h) it was 45%; in assay [1] (4 h), 44%; in assay [1] (24 h), 4%. For the same compound, the Mean edema thickness in assay [1] (1 h) amounted to 1.18 ± 0.11 mm; in assay [1] (2 h), 1.09 ± 0.19 mm; in assay [1] (3 h) it was 0.99 ± 0.09 mm; in assay [1] (4 h), 0.78 ± 0.10 mm; in assay [1] (24 h) it was 0.80 ± 0.05 mm. Further, the “Potency (% inhibition of edema relative to that of indomethacin reference standard)” value in assay [1] amounted to 51.

As to `COc1cc(/C=C/C(=O)CC(=O)/C=C/c2ccc(OC(=O)CNC(=O)OC(C)(C)C)c(OC)c2)ccc1OC(=O)CNC(=O)OC(C)(C)C` [Compound 22], the “% inhibition of edema” value was 43% in assay [1] (1 h); 44% in assay [1] (2 h); 44% in assay [1] (3 h); 48% in assay [1] (4 h); 47% in assay [1] (24 h). Moreover, the Mean edema thickness is listed as 1.37 ± 0.18 mm in assay [1] (1 h); 1.16 ± 0.14 mm in assay [1] (2 h); 1.00 ± 0.11 mm in assay [1] (3 h); 0.73 ± 0.09 mm in assay [1] (4 h); 0.44 ± 0.05 mm in assay [1] (24 h). Besides, in assay [1], the “Potency (% inhibition of edema relative to that of indomethacin reference standard)” value is 55.

In the case of `O=C(O)c1cn(C2CC2)c2cc(N3CCNCC3)c(F)cc2c1=O` [Ciprofloxacin, reference compound], the MIC in assay [2] (18 h) was determined as 2.4 µg/mL; in assay [2], 7.24 µM; in assay [3], 1250 µg/mL (≈ 3.77 mM); in assay [4] (setting [6]), 1250 µg/mL; in assay [4] (setting [7]), 3770 µM; in assay [5] (setting [8]), 4.8 µg/mL. The MIC in assay [5] (setting [9]) turned out to be 14.5 µM.
